Measured values from patent publication US11130769B2 (Prelude Therapeutics Incorporated, priority 2018, dated 2021).

Columns and labels:
[1] = target: MCL-1 (Homo sapiens (Human), UniProt Q07820); experiment: Cell free Mcl-1:Bim affinity assay (fluorescence polarization competition); type: binding; settings: 15 nM MCL-1, 5 nM FITC-Bim, 1 hour at room temperature; class symbols; read-out: BIM_Ki
Method in brief: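 Fluorescence polarization competition: 10-point 3-fold compound dilutions displaced 5 nM FITC-Bim from 15 nM MCL-1 over 1 h at room temperature. Ki was derived from the fitted IC50 using the Nikolovska-Coleska equation, with percent inhibition normalized to DMSO and positive controls.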

[2] = test system: H929 cells; experiment: Cell viability assay (H929 10 FBS); type: cell-based; settings: Homo sapiens, NCI-H929, 24 hours, read-out: H929_10FBS IC50
Method in brief: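 ATP-based luminescence (CellTiter-Glo or ATPlite 1 Step, 30-60 min at RT) gauged viability of H929 myeloma cells after 24 h compound treatment at 37 °C. Cells plated at 4000 per well in 10% FBS RPMI 1640 supplemented with pyruvate, HEPES and glucose.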

Sequence of MCL-1 (Q07820 whole entry): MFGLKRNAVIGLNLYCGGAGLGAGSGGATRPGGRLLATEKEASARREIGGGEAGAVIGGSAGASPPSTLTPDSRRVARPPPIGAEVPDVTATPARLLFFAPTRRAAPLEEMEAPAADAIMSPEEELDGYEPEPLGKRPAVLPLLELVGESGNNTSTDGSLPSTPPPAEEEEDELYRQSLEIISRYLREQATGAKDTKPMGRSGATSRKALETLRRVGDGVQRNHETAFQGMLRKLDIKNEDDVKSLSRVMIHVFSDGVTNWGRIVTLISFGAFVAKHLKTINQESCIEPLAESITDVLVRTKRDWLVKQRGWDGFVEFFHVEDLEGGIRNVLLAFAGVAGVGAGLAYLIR

Row | Ki [1] | IC50 [2] | Compound
1 | < 1 nM | > 1000 nM | CC1(C)OC/C=C/[C@H](OC(=O)N2CCOCC2)[C@@H]2CC[C@H]2CN2C[C@@]3(CCOc4cc(Cl)ccc43)COc3ccc(cc32)S(=O)(=O)NC1=O [Example 248, [(3R,6R,7S,8E,22S)-7′-Chloro-12,12-dimethyl-13,15,15-trioxo-spiro[11,20-dioxa-15-thia-1,14-diazatetracyclo[14.7.2.03,6.019,24]pentacosa-8,16,18,24-tetraene-22,4′-chromane]-7-yl]morpholine-4-carboxylate]
2 | 1 to 100 nM | > 1000 nM | COC(=O)N(C)[C@H]1/C=C/COC(C)(C)C(=O)NS(=O)(=O)c2ccc3c(c2)N(C[C@@H]2CC[C@H]21)C[C@@]1(CCCc2cc(Cl)ccc21)CO3 [Example 254, Methyl N-methyl-N-[(3R,6R,7S,8E,22S)-6′-chloro-12,12-dimethyl-13,15,15-trioxo-spiro[11,20-dioxa-15-thia-1,14-diazatetracyclo[14.7.2.03,6.019,24]pentacosa-8,16(25),17,19(24)-tetraene-22,1′-tetralin]-7-yl]carbamate]
3 | < 1 nM | < 500 nM | CC1(C)OC/C=C/[C@H](OCCN2CC(F)(F)C2)[C@@H]2CC[C@H]2CN2C[C@@]3(CCCc4cc(Cl)ccc43)COc3ccc(cc32)S(=O)(=O)NC1=O [Example 258, (3R,6R,7S,8E,22S)-6′-Chloro-7-[2-(3,3-difluoroazetidin-1-yl)ethoxy]-12,12-dimethyl-15,15-dioxo-spiro[11,20-dioxa-15-thia-1,14-diazatetracyclo[14.7.2.03,6.019,24]pentacosa-8,16,18,24-tetraene-22,1′-tetralin]-13-one]
4 | < 1 nM | < 500 nM | CN1CCN(CCO[C@H]2/C=C/COC(C)(C)C(=O)NS(=O)(=O)c3ccc4c(c3)N(C[C@@H]3CC[C@H]32)C[C@@]2(CCCc3cc(Cl)ccc32)CO4)CC1 [Example 259, (3R,6R,7S,8E,22S)-6′-Chloro-12,12-dimethyl-7-[2-(4-methylpiperazin-1-yl)ethoxy]-15,15-dioxo-spiro[11,20-dioxa-15-thia-1,14-diazatetracyclo[14.7.2.03,6.019,24]pentacosa-8,16,18,24-tetraene-22,1′-tetralin]-13-one]
5 | < 1 nM | < 500 nM | CO[C@@H]1CCN(CCO[C@H]2/C=C/COC(C)(C)C(=O)NS(=O)(=O)c3ccc4c(c3)N(C[C@@H]3CC[C@H]32)C[C@@]2(CCCc3cc(Cl)ccc32)CO4)C1 [Example 260, (3R,6R,7S,8E,22S)-6′-Chloro-7-[2-[(3R)-3-methoxypyrrolidin-1-yl]ethoxy]-12,12-dimethyl-15,15-dioxo-spiro[11,20-dioxa-15-thia-1,14-diazatetracyclo[14.7.2.03,6.019,24]pentacosa-8,16,18,24-tetraene-22,1′-tetralin]-13-one]
6 | < 1 nM | < 500 nM | COC1CN(CCO[C@H]2/C=C/COC(C)(C)C(=O)NS(=O)(=O)c3ccc4c(c3)N(C[C@@H]3CC[C@H]32)C[C@@]2(CCCc3cc(Cl)ccc32)CO4)C1 [Example 261, (3R,6R,7S,8E,22S)-6′-Chloro-7-[2-(3-methoxyazetidin-1-yl)ethoxy]-12,12-dimethyl-15,15-dioxo-spiro[11,20-dioxa-15-thia-1,14-diazatetracyclo[14.7.2.03,6.019,24]pentacosa-8,16,18,24-tetraene-22,1′-tetralin]-13-one]
7 | < 1 nM | < 500 nM | CC1(C)OC/C=C/[C@H](OCCN2CCC2)[C@@H]2CC[C@H]2CN2C[C@@]3(CCCc4cc(Cl)ccc43)COc3ccc(cc32)S(=O)(=O)NC1=O [Example 262, (3R,6R,7S,8E,22S)-7-[2-(Azetidin-1-yl)ethoxy]-6′-chloro-12,12-dimethyl-15,15-dioxo-spiro[11,20-dioxa-15-thia-1,14-diazatetracyclo[14.7.2.03,6.019,24]pentacosa-8,16,18,24-tetraene-22,1′-tetralin]-13-one]
8 | < 1 nM | < 500 nM | CC1(C)OC/C=C/[C@H](OCCN2CC[C@@H](F)C2)[C@@H]2CC[C@H]2CN2C[C@@]3(CCCc4cc(Cl)ccc43)COc3ccc(cc32)S(=O)(=O)NC1=O [Example 264, (3R,6R,7S,8E,22S)-6′-Chloro-7-[2-[(3R)-3-fluoropyrrolidin-1-yl]ethoxy]-12,12-dimethyl-15,15-dioxo-spiro[11,20-dioxa-15-thia-1,14-diazatetracyclo[14.7.2.03,6.019,24]pentacosa-8,16,18,24-tetraene-22,1′-tetralin]-13-one]
9 | < 1 nM | < 500 nM | CO[C@@H]1CCN(C(=O)O[C@H]2/C=C/COC(C)(C)C(=O)NS(=O)(=O)c3ccc4c(c3)N(C[C@@H]3CC[C@H]32)C[C@@]2(CCOc3cc(Cl)ccc32)CO4)C1 [Example 266, [(3R,6R,7S,8E,22S)-7′-Chloro-12,12-dimethyl-13,155-trioxo-spiro[11,20-dioxa-15-thia-1,14-diazatetracyclo[14.7.2.03,6.019,24]pentacosa-8,16,18,24-tetraene-22,4′-chromane]-7-yl] (3R)-3-methoxypyrrolidine-1-carboxylate]

Further lines, the compound ahead of its results:

Row | Compound | Ki [1] | IC50 [2]
10 | CC1(C)OC/C=C/[C@H](O)[C@@H]2CC[C@H]2CN2C[C@]3(COc4ccc(cc42)S(=O)(=O)NC1=O)OCCc1cc(Cl)ccc13 [Example 249, (3R,6R,7S,8E,22R)-6′-Chloro-7-hydroxy-12,12-dimethyl-15,15-dioxo-spiro[11,20-dioxa-15-thia-1,14-diazatetracyclo[14.7.2.03,6.019,24]pentacosa-8,16,18,24-tetraene-22,1′-isochromane]-13-one] | 1 to 100 nM | > 1000 nM
11 | CN(C)C(=O)O[C@H]1/C=C/COC(C)(C)C(=O)NS(=O)(=O)c2ccc3c(c2)N(C[C@@H]2CC[C@H]21)C[C@]1(CO3)OCCc2cc(Cl)ccc21 [Example 250, [(3R,6R,7S,8E,22R)-6′-Chloro-12,12-dimethyl-13,15,15-trioxo-spiro[11,20-dioxa-15-thia-1,14-diazatetracyclo[14.7.2.03,6.019,24]pentacosa-8,16,18,24-tetraene-22,1′-isochromane]-7-yl] N,N-dimethylcarbamate] | < 1 nM | < 500 nM
12 | CCOC(=O)N(C)[C@@H]1/C=C/CN(C)C(C)(C)C(=O)NS(=O)(=O)c2ccc3c(c2)N(C[C@@H]2CC[C@H]21)C[C@@]1(CCCc2cc(Cl)ccc21)CO3 [Example 253, Ethyl N-methyl-N-[(3R,6R,7R,8E,22S)-6′-chloro-11,12,12-trimethyl-13,15,15-trioxo-spiro[20-oxa-15-thia-1,11,14-triazatetracyclo[14.7.2.03,6.019,24]pentacosa-8,16(25),17,19(24)-tetraene-22,1′-tetralin]-7-yl]carbamate] | 1 to 100 nM | > 1000 nM
13 | CC(=O)N(C)[C@H]1/C=C/COC(C)(C)C(=O)NS(=O)(=O)c2ccc3c(c2)N(C[C@@H]2CC[C@H]21)C[C@@]1(CCCc2cc(Cl)ccc21)CO3 [Example 255, N-Methyl-N-[(3R,6R,7S,8E,22S)-6′-chloro-12,12-dimethyl-13,15,15-trioxo-spiro[11,20-dioxa-15-thia-1,14-diazatetracyclo[14.7.2.03,6.019,24]pentacosa-8,16(25),17,19(24)-tetraene-22,1′-tetralin]-7-yl]acetamide] | 1 to 100 nM | > 1000 nM
14 | CN([C@H]1/C=C/COC(C)(C)C(=O)NS(=O)(=O)c2ccc3c(c2)N(C[C@@H]2CC[C@H]21)C[C@@]1(CCCc2cc(Cl)ccc21)CO3)S(C)(=O)=O [Example 256, N-Methyl-N-[(3R,6R,7S,8E,22S)-6′-chloro-12,12-dimethyl-13,15,15-trioxo-spiro[11,20-dioxa-15-thia-1,14-diazatetracyclo[14.7.2.03,6.019,24]pentacosa-8,16(25),17,19(24)-tetraene-22,1′-tetralin]-7-yl]methanesulfonamide] | 1 to 100 nM | > 1000 nM
15 | CN(C)C(=O)N(C)[C@H]1/C=C/COC(C)(C)C(=O)NS(=O)(=O)c2ccc3c(c2)N(C[C@@H]2CC[C@H]21)C[C@@]1(CCCc2cc(Cl)ccc21)CO3 [Example 257, 1,1,3-Trimethyl-3-[(3R,6R,7S,8E,22S)-6′-chloro-12,12-dimethyl-13,15,15-trioxo-spiro[11,20-dioxa-15-thia-1,14-diazatetracyclo[14.7.2.03,6.019,24]pentacosa-8,16(25),17,19(24)-tetraene-22,1′-tetralin]-7-yl]urea] | 1 to 100 nM | > 1000 nM
16 | CC1(C)OC/C=C/[C@H](OCCN2CCCCC2)[C@@H]2CC[C@H]2CN2C[C@@]3(CCCc4cc(Cl)ccc43)COc3ccc(cc32)S(=O)(=O)NC1=O [Example 263, (3R,6R,7S,8E,22S)-6′-Chloro-12,12-dimethyl-15,15-dioxo-7-[2-(1-piperidyl)ethoxy]spiro[11,20-dioxa-15-thia-1,14-diazatetracyclo[14.7.2.03,6.019,24]pentacosa-8,16,18,24-tetraene-22,1′-tetralin]-13-one] | < 1 nM | < 500 nM
17 | CC1(C)OC/C=C/[C@H](OCCN2CC[C@H](F)C2)[C@@H]2CC[C@H]2CN2C[C@@]3(CCCc4cc(Cl)ccc43)COc3ccc(cc32)S(=O)(=O)NC1=O [Example 265, (3R,6R,7S,8E,22S)-6′-Chloro-7-[2-[(3S)-3-fluoropyrrolidin-1-yl]ethoxy]-12,12-dimethyl-15,15-dioxo-spiro[11,20-dioxa-15-thia-1,14-diazatetracyclo[14.7.2.03,6.019,24]pentacosa-8,16,18,24-tetraene-22,1′-tetralin]-13-one] | 1 to 100 nM | < 500 nM
